According to US6335355B1, “Crop protection products” (Syngenta Investment Corporation, priority 1995, dated 2002):
Read-outs that look alike come from different tables or passages of the source.

Assays:
[1] = system: Colletotrichum lagenarium; assay: Action against Colletotrichum lagenarium on Cucumis sativus L./soil application; type: in vivo
Erysiphe graminis = assay: Action against Erysiphe graminis on barley
Procedure: A1: Action gainst Erysiphe graminis on Barley
a) Residual-protective Action Barley plants about 8 cm in height are sprayed to drip point with an aqueous spray mixture (max. 0.02% active ingredient) and are dusted 3 to 4 days later with conidia of the fungus. The infected plants are stood in a greenhouse at 22°. Fungus infestation is generally evaluated 10 days after infection.
b) Systemic Action Barley plants about 8 cm in height are watered with an aqueous spray mixture (max. 0.002% active ingredient, based on the volume of the soil). […] The plants are dusted with conidia of the fungus 3 to 4 days later. The infected plants are stood in a greenhouse at 22°. Fungus infestation is generally evaluated 10 days after infection.

[2] = system: Colletotrichum lagenarium; assay: Action against Colletotrichum lagenarium on Cucumis sativus L./foliar application; type: in vivo
[3] = Field test on chilli: action on crop yield; type: in vivo; details: Example B10, chillis harvested after the sixth spraying
Cercospora nicotianae = assay: Action against Cercospora nicotianae on tobacco plants; type: in vivo
Pyricularia oryzae = type: in vivo; details: Example B11
[4] = system: Cercospora sp. (leaf spot); assay: Field test on chilli: action against Cercospora sp. (leaf spot)
Source text: In a plot of land about 10 m^2 (test location: Cikampek, Java, Indonesia), chilli plants are sprayed a total of 7 times at intervals of about 7 days with 500-700 litres of spray mixture per hectare. Three days after the first spraying, the plants are infected artificially with the fungus.
Evaluation is made by assessing infestation on the leaves after the sixth spraying.

[5] = Example B3(b), 0.2 mg a.i. per liter (ppm)
[6] = Example B1, 0.6 mg a.i. per liter (ppm)
[7] = Example B1, 2 mg a.i. per liter (ppm)
[8] = Example B1, 6 mg a.i. per liter (ppm)
[9] = Example B3(a), 0.06 mg a.i. per liter (ppm)
[10] = Example B3(a), 0.2 mg a.i. per liter (ppm)
[11] = Example B5, 2 mg a.i. per liter (ppm)
[12] = Example B5, 6 mg a.i. per liter (ppm)
[13] = Example B7, 2 mg a.i. per liter (ppm)
[14] = Example B7, 6 mg a.i. per liter (ppm)
[15] = Example B9(b), 0.02 mg a.i. per liter (ppm)
[16] = Example B9(b), 0.06 mg a.i. per liter (ppm)
[17] = Example B9(a), 6 mg a.i. per liter (ppm)

O=C(O)c1cccc2nnsc12 [compound IA, benzothiadiazole-7-carboxylic acid]
% action O (found) ([1]; Example B3(b), 0.006 mg a.i. per liter (ppm)): 0%
% action O (found) ([1]; Example B3(b), 0.02 mg a.i. per liter (ppm)): 40%
% action O (found) ([1]; Example B3(b), 0.06 mg a.i. per liter (ppm)): 49%
% action O (found) [1, 5]: 91%
% action O (found) (Erysiphe graminis; [6]): 0%
% action O (found) (Erysiphe graminis; [7]): 40%
% action O (found) (Erysiphe graminis; [8]): 89%
% action O (found) (Erysiphe graminis; Example B2, 0.6 mg a.i. per liter (ppm)): 14%
% action O (found) (Erysiphe graminis; Example B2, 2 mg a.i. per liter (ppm)): 27%
% action O (found) [2, 9]: 0%
% action O (found) [2, 10]: 5%
% action O (found) ([2]; Example B3(a), 2 mg a.i. per liter (ppm)): 22%
% action O (found) ([2]; Example B4, 0.2 mg a.i. per liter (ppm)): 3%
% action O (found) ([2]; Example B4, 0.6 mg a.i. per liter (ppm)): 51%

CSC(=O)c1cccc2nnsc12 [compound ID, benzothiadiazole-7-carboxylic acid thiomethyl ester]
Action on crop yield, % action O (found) ([3]; 5 mg a.i. per liter (ppm)): 459%
% action O (found) (Cercospora nicotianae; Example B5, 0.2 mg a.i. per liter (ppm)): 0%
% action O (found) (Cercospora nicotianae; [11]): 17%
% action O (found) (Cercospora nicotianae; [12]): 55%
% action O (found) (Cercospora nicotianae; Example B5, 20 mg a.i. per liter (ppm)): 78%
% action O (found) (Cercospora nicotianae; Example B7, 0.2 mg a.i. per liter (ppm)): 0%
% action O (found) (Cercospora nicotianae; [13]): 17%
% action O (found) (Cercospora nicotianae; [14]): 55%
% action O (found) (Cercospora nicotianae; Example B7, 20 mg a.i. per liter (ppm)): 78%
% action O (found) (Pyricularia oryzae; 6 mg a.i. per liter (ppm)): 15%
% action O (found) ([4]; Example B10, 5 mg a.i. per liter (ppm)): 76%
% action O (found) ([1]; Example B9(b), 0.006 mg a.i. per liter (ppm)): 0%
% action O (found) [1, 15]: 6%
% action O (found) [1, 16]: 23%
% action O (found) ([1]; Example B9(b), 0.2 mg a.i. per liter (ppm)): 36%
% action O (found) (Erysiphe graminis; Example B8, 0.6 mg a.i. per liter (ppm)): 0%
% action O (found) (Erysiphe graminis; Example B8, 2 mg a.i. per liter (ppm)): 33%
% action O (found) ([2]; Example B9(a), 0.06 mg a.i. per liter (ppm)): 16%
% action O (found) ([2]; Example B9(a), 0.2 mg a.i. per liter (ppm)): 22%
% action O (found) [2, 17]: 60%

CC(C)(C)C(O)(CCc1ccc(Cl)cc1)Cn1cncn1 (stereo not drawn) [compound IIA, α-[2-(4-chlorophenyl)ethyl]-α-(1,1-dimethylethyl)-1H-1,2,4-trazole-1-ethanol]
% action O (found) (Cercospora nicotianae; [11]): 0%
% action O (found) (Cercospora nicotianae; [12]): 0%

CC(C1CC1)C(O)(Cn1cncn1)c1ccc(Cl)cc1 (stereo not drawn) [compound IIC, α-(4-chlorophenyl)-α-(1-cyclopropylethyl)-1H-1,2,4-triazole-1-ethanol]
% action O (found) (Cercospora nicotianae; [13]): 0%
% action O (found) (Cercospora nicotianae; [14]): 0%
% action O (found) (Erysiphe graminis; Example B8, 6 mg a.i. per liter (ppm)): 17%
% action O (found) (Erysiphe graminis; Example B8, 20 mg a.i. per liter (ppm)): 33%
% action O (found) (Erysiphe graminis; Example B8, 60 mg a.i. per liter (ppm)): 50%

CC1(C)CCC(Cc2ccc(Cl)cc2)C1(O)Cn1cncn1 (stereo not shown) [compound IID, 5-(4-chlorobenzyl)-2,2-dimethyl-1-(1H-1,2,4-triazol-1-ylmethyl)-cyclopentanol]
% action O (found) (Erysiphe graminis; [6]): 10%
% action O (found) (Erysiphe graminis; [7]): 40%
% action O (found) (Erysiphe graminis; [8]): 51%
% action O (found) (Erysiphe graminis; Example B1, 20 mg a.i. per liter (ppm)): 65%

CO/C=C(/C(=O)OC)c1ccccc1Oc1cc(Oc2ccccc2C#N)ncn1 [compound IIF, methyl-(E)-2-{2-[6-(2-cyanophenoxy)pyrimidin4-yloxy]phenyl}-3-methoxyacrylate]
% action O (found) [1, 5]: 0%
% action O (found) ([1]; Example B3(b), 0.6 mg a.i. per liter (ppm)): 9%
% action O (found) ([1]; Example B3(b), 2 mg a.i. per liter (ppm)): 28%
% action O (found) ([1]; Example B3(b), 6 mg a.i. per liter (ppm)): 66%
% action O (found) [1, 15]: 1%
% action O (found) [1, 16]: 5%
% action O (found) ([1]; Example B9(b), 0.6 mg a.i. per liter (ppm)): 27%
% action O (found) ([1]; Example B9(b), 2 mg a.i. per liter (ppm)): 61%
% action O (found) ([1]; Example B9(b), 6 mg a.i. per liter (ppm)): 93%
% action O (found) [2, 9]: 5%
% action O (found) [2, 10]: 9%
% action O (found) ([2]; Example B3(a), 0.6 mg a.i. per liter (ppm)): 12%
% action O (found) ([2]; Example B3(a), 6 mg a.i. per liter (ppm)): 17%
% action O (found) ([2]; Example B9(a), 2 mg a.i. per liter (ppm)): 18%
% action O (found) [2, 17]: 75%

CO/N=C(/C(=O)OC)c1ccccc1COc1ccccc1C [compound IIG, methyl-(E)-2-methoximino-2-[α-(o-tolyloxy)-o-tolyl]acetate]
% action O (found) ([2]; Example B4, 2 mg a.i. per liter (ppm)): 0%
% action O (found) ([2]; Example B4, 20 mg a.i. per liter (ppm)): 41%

CCC1(C(=O)NC(C)c2ccc(Cl)cc2)C(C)C1(Cl)Cl [compound IIK, (1R,3S/1S,3R)-2,2-dichloro-N-[(R)-1-(4-chlorophenyl)ethyl]-1-ethyl-3-methylcyclo-propanecarboxamide]
% action O (found) (Pyricularia oryzae; 0.02 mg a.i. per liter (ppm)): 0%
% action O (found) (Pyricularia oryzae; 0.06 mg a.i. per liter (ppm)): 28%
% action O (found) (Pyricularia oryzae; 0.2 mg a.i. per liter (ppm)): 47%
% action O (found) (Pyricularia oryzae; 0.6 mg a.i. per liter (ppm)): 79%
% action O (found) (Pyricularia oryzae; 2 mg a.i. per liter (ppm)): 83%
% action O (found) (Pyricularia oryzae; 6 mg a.i. per liter (ppm)): 91%

manganese ethylenebis (dithiocarbamate) polymer-zinc complex [compound IIL]
Action on crop yield, % action O (found) ([3]; 100 mg a.i. per liter (ppm)): 8%
% action O (found) ([4]; Example B10, 100 mg a.i. per liter (ppm)): 8%
